What was measured:
NCI-H716 cells = assay: Promotion of glucagon-like peptide-1 (GLP-1) secretion (ELISA); format: cell-based, human; conditions: 1, 10, 30 μM
Method: To evaluate an effect of the cyclohexene derivative according to the present invention on promotion of glucagon-like peptide-1 (GLP-1) secretion, experiments were carried out, as follows.
NCI-H716 cells that were human enterocytes were plated on 12 wells at 1×10^6 cells per well. After 48 hours, the cells were starved in serum-free media for 2 hours, and treated with a varying concentration of siptagliptin that was a dipeptidyl peptidase-IV (DPP-IV) inhibitor, and the compounds of Comparative Example 1 (1, 10, 30 μM), Comparative Example 5 (10 μM), Example 48 (1, 10, 30 μM), and Example 291 (1, 10, 30 μM). After an hour, supernatants are recovered to determine an amount of the secreted GLP-1 peptide. The GLP-1 measurement was performed using an enzyme-linked immunosorbant assay (ELISA; Millipore, EGLP-35K), and the amount of the secreted GLP-1 peptide was indicated by the unit “pM”.

[1] = target: T1, G protein-coupled receptor 119 (GPR-119) (Mesocricetus auratus, UniProt A0A1U8CD06); assay: cAMP activity in HIT-T15 cells (cAMP dynamic kit, FRET); format: cell-based, hamster; conditions: 1 hour at 37° C., six concentrations 0.0032 to 10 μM, read-out: EC50
T1 construct: hamster-derived β-cells containing G protein-coupled receptor 119 (GPR-119), HIT-T15 cells; host or cells: HIT-T15 (hamster pancreatic β-cells)
T1 sequence (A0A1U8CD06 1-334): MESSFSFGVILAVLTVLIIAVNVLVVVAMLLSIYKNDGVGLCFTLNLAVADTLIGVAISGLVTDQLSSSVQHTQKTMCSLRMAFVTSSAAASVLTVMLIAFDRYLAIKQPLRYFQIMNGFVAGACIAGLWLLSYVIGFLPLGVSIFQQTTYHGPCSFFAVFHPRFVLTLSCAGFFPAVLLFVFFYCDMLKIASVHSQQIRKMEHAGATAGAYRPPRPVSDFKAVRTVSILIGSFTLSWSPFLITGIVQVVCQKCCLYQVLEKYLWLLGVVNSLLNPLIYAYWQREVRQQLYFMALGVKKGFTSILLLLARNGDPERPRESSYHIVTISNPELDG
Outline: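 Hamster HIT-T15 cells (60,000/well) were treated next day with compound at six concentrations, 0.0032–10 μM, for 1 h at 37° C. Cells were then lysed and cAMP measured by competitive HTRF immunoassay (D2-cAMP, cryptate anti-cAMP). Activity was derived as the change in FRET signal relative to DMSO.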

CYP2C9 = target: T2, CYP2C9 (Homo sapiens, UniProt P11712); assay: CYP inhibition assay (BD GENTEST kit); format: in vitro ADME; conditions: 10 μM
T2 construct: purchased BD GENTEST 459300
From the text: CYP enzymes play a major role in the metabolism of drugs. Depending on the inhibition activity of the CYP enzymes, the dose of the drugs and toxicity due to the co-administration of other drugs can be predicted. Therefore, we have measured the inhibitory activity for CYP3A4, CYP2C9, CYP1A2, CYP2D6 and CYP2C19 enzymes present in the body using the compounds of the present invention. Invitrogen P2862 kit was used for CYP2D6 inhibition assay, and BD GENTEST (459100, 459300, 459400, 459500) kits were used for CYP1A2, CYP2C9, CYP2C19 and CYP3A4 inhibition assay. In case of Invitrogen kit, the test materials were diluted in distilled water into 2.5× of the final test concentration.
In case of BD GENTEST kit, the test materials were diluted in acetonitrile into 50× of the final test concentration. NADPH-cofactor mixture containing cofactor, G6PDH and control protein was prepared in distilled water as per manufacturer's instruction. 4 μl of 50× test materials and 96 μl of NADPH-cofactor mixture were mixed in U-bottom 96-well plate, and the resulting mixture were pre-incubated at 37° C. for 10 minutes. Predetermined concentrations of enzyme/substrate mixture were prepared in distilled water using buffer (0.5M potassium phosphate, pH 7.4) and each of CYP450 enzyme/substrate mixture provided in the kit for the types of CYP450. To the pre-incubated plate, 100 μl of enzyme/substrate mixture was added, and then incubated at 37° C. for 15 minutes (CYP1A2), 30 minutes (CYP3A4 and CYP2C19) or 1.5 hours (CYP2C9). After completion of the reaction, the reactants were transferred to the white plates, and fluorescent values were measured using a micro-plate reader (Excitation and absorption wavelengths of CYP1A2 and CYP2C19 were 410 nm and 460 nm, respectively; and excitation and absorption wavelengths of CYP2C9 and CYP3A4 were 409 nm and 530 nm, respectively).
The measured values were converted into the inhibition percent of the test materials as compared to the value of the untreated control, and the results were summarized in Table 5.

T2 sequence (P11712 whole entry): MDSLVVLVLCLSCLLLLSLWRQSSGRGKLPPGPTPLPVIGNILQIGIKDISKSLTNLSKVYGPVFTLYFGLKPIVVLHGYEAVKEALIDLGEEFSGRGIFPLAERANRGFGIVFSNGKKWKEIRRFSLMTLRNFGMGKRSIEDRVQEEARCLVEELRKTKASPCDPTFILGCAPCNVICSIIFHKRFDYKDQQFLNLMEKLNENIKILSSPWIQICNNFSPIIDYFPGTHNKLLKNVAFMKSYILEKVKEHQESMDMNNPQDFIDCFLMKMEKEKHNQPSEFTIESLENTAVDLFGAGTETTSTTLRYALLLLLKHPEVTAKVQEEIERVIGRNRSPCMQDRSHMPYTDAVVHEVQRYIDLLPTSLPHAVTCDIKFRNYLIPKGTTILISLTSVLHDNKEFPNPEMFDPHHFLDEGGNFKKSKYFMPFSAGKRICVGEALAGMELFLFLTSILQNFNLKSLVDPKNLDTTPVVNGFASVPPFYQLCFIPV

EC50 [1]: 0.032 µM | CYP inhibition (% at 10 μM) 2C9 (CYP2C9): 47.32%
SMILES: CCc1cnc(N2CCC(COc3ccc(C4=CCC(C(=O)N5CCC[C@@H]5CO)CC4)cc3)CC2)nc1 (single isomer, unassigned; (-)) [Example 291]
GLP-1 secretion relative to the untreated group (NCI-H716 cells): approximately 1.8 times
